Test results taken from patent publication US20260317309A1, “N-HETEROCYLIC GPCR RECEPTOR AGONISTS, PHARMACEUTICAL COMPOSITIONS COMPRISING THE SAME, AND METHODS FOR THEIR USE” (Carmot Therapeutics, Inc., priority 2022, published 2026).

What follows are compounds tested against T1, human GLP-1 receptor (Homo sapiens, UniProt P43220) (assay: GLP-1R cAMP assay (cAMP accumulation in CHO cells stably overexpressing the human GLP-1 receptor, HitHunter kit)). Conditions: CHO cells stably overexpressing human GLP-1R, 30 min, 20-point dose response in triplicate.
T1 construct: expressed in transfected cells
Type: cell-based
Method in brief: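 CHO cells stably expressing the human receptor (10,000/well) in HBSS with 10 mM HEPES and 625 μM IBMX, given compound as a 20-point dose response in triplicate for 30 min. cAMP was read by luminescent enzyme-complementation detection after overnight incubation, and EC50 was fitted from dose-response curves.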

T1 sequence (P43220 24-463): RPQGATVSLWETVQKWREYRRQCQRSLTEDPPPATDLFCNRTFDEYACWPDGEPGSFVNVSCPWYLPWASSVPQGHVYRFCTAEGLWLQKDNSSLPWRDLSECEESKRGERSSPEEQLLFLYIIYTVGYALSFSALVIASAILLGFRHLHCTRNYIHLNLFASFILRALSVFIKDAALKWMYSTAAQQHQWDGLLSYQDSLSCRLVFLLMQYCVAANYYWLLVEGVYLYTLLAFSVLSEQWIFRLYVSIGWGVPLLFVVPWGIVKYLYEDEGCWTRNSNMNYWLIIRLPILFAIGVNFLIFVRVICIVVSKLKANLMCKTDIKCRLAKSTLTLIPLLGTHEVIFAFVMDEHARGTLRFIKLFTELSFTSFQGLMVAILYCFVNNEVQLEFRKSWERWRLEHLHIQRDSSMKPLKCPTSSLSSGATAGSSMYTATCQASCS

Compared with `C[C@H]1C[C@@H](Oc2ccnc(COc3ccc(Cl)cn3)c2)CCN1Cc1nc2c(F)cc(C(=O)O)cc2n1C[C@@H]1CCO1` [Compound 616, 2-(((2S,4S)-4-((2-(((5-Chloropyridin-2-yl)oxy)methyl)pyridin-4-yl)oxy)-2-methylpiperidin-1-yl)methyl)-4-fluoro-1-(((S)-oxetan-2-yl)methyl)-1H-benzo[d]imidazole-6-carboxylic acid], `C[C@H]1C[C@@H](Oc2ccnc(COc3ncc(F)cc3F)c2)CCN1Cc1nc2c(F)cc(C(=O)O)cc2n1C[C@@H]1CCO1` [Compound 619, 2-(((2S,4S)-4-((2-(((3,5-Difluoropyridin-2-yl)oxy)methyl)pyridin-4-yl)oxy)-2-methylpiperidin-1-yl)methyl)-4-fluoro-1-(((S)-oxetan-2-yl)methyl)-1H-benzo[d]imidazole-6-carboxylic acid] is higher in EC50: 0.1 to 1 nM for the first, 1 to 10 nM for the second. The first is the more potent here.

First: C[C@H](Cn1c(CN2CC[C@H](Oc3ccnc(COc4ncc(F)cc4F)n3)C[C@@H]2C)nc2ccc(C(=O)O)cc21)OC(F)F [Compound 617, 1-((R)-2-(Difluoromethoxy)propyl)-2-(((2S,4S)-4-((2-(((3,5-difluoropyridin-2-yl)oxy)methyl)pyrimidin-4-yl)oxy)-2-methylpiperidin-1-yl)methyl)-1H-benzo[d]imidazole-6-carboxylic acid]
Second: C[C@H](Cn1c(CN2CC[C@H](Oc3ccnc(COc4ncc(C#N)cc4F)n3)C[C@@H]2C)nc2ccc(C(=O)O)cc21)OC(F)F [Compound 626, 2-(((2S,4S)-4-((2-(((5-cyano-3-fluoropyridin-2-yl)oxy)methyl)pyrimidin-4-yl)oxy)-2-methylpiperidin-1-yl)methyl)-1-((R)-2-(difluoromethoxy)propyl)-1H-benzo[d]imidazole-6-carboxylic acid]
The EC50 of the first is lower: < 0.1 nM for the first, 0.1 to 1 nM for the second. The first is the more potent here.

First: C[C@H](Cn1c(CN2CC[C@H](Oc3ccnc(COc4ccc(F)cc4F)n3)C[C@@H]2C)nc2ccc(C(=O)O)cc21)OC1CC1 [Compound 618, 1-((R)-2-cyclopropoxypropyl)-2-(((2S,4S)-4-((2-((2,4-difluorophenoxy)methyl)pyrimidin-4-yl)oxy)-2-methylpiperidin-1-yl)methyl)-1H-benzo[d]imidazole-6-carboxylic acid]
Second: C[C@H]1C[C@@H](Oc2ccnc(COc3ccc(F)cc3F)n2)CCN1Cc1nc2ccc(CC(=O)O)cc2n1C[C@@H]1CCO1 [Compound 637, 2-(2-(((2S,4S)-4-((2-((2,4-difluorophenoxy)methyl)pyrimidin-4-yl)oxy)-2-methylpiperidin-1-yl)methyl)-1-(((S)-oxetan-2-yl)methyl)-1H-benzo[d]imidazol-6-yl) acetic acid]
The EC50 of the first is lower: 0.1 to 1 nM for the first, 1 to 10 nM for the second. The first is the more potent here.

`C[C@H](Cn1c(CN2CC[C@H](Oc3ccnc(COc4ncc(F)cc4F)n3)C[C@@H]2C)nc2c(F)cc(C(=O)O)cc21)OC(F)F` [Compound 620, 1-((R)-2-(difluoromethoxy)propyl)-2-(((2S,4S)-4-((2-(((3,5-difluoropyridin-2-yl)oxy)methyl)pyrimidin-4-yl)oxy)-2-methylpiperidin-1-yl)methyl)-4-fluoro-1H-benzo[d]imidazole-6-carboxylic acid] and `C[C@H]1C[C@@H](Oc2ccnc(COc3ncc(F)cc3F)n2)CCN1Cc1nc2c(F)cc(C(=O)O)cc2n1C[C@@H]1CCCO1` [Compound 622, 2-(((2S,4S)-4-((2-(((3,5-Difluoropyridin-2-yl)oxy)methyl)pyrimidin-4-yl)oxy)-2-methylpiperidin-1-yl)methyl)-4-fluoro-1-(((S)-tetrahydrofuran-2-yl)methyl)-1H-benzo[d]imidazole-6-carboxylic acid] fall in the same range of EC50: 0.1 to 1 nM for the first, 0.1 to 1 nM for the second.

`C[C@H]1C[C@@H](Oc2ccnc(COc3ccc(F)cc3F)n2)CCN1Cc1nc2c(F)cc(C(=O)O)cc2n1C[C@@H]1CCCO1` [Compound 621, 2-(((2S,4S)-4-((2-((2,4-Difluorophenoxy)methyl)pyrimidin-4-yl)oxy)-2-methylpiperidin-1-yl)methyl)-4-fluoro-1-(((S)-tetrahydrofuran-2-yl)methyl)-1H-benzo[d]imidazole-6-carboxylic acid] and `C[C@H]1C[C@@H](Oc2ccnc(COc3ncc(F)cc3C#N)n2)CCN1Cc1nc2c(F)cc(C(=O)O)cc2n1C[C@@H]1CCO1` [Compound 629, 2-(((2S,4S)-4-((2-(((3-cyano-5-fluoropyridin-2-yl)oxy)methyl)pyrimidin-4-yl)oxy)-2-methylpiperidin-1-yl)methyl)-4-fluoro-1-(((S)-oxetan-2-yl)methyl)-1H-benzo[d]imidazole-6-carboxylic acid] cannot be ordered by EC50: < 0.1 nM for the first, < 0.1 nM for the second.

Compared with `C[C@H]1C[C@@H](Oc2ccnc(COc3ccc(F)cc3F)n2)CCN1Cc1nc2ccc(CCC(=O)O)cc2n1C[C@@H]1CCO1` [Compound 623, 3-(2-(((2S,4S)-4-((2-((2,4-difluorophenoxy)methyl)pyrimidin-4-yl)oxy)-2-methylpiperidin-1-yl)methyl)-1-(((S)-oxetan-2-yl)methyl)-1H-benzo[d]imidazol-6-yl) propanoic acid], `C[C@H]1C[C@@H](Oc2ccnc(COc3ccc(F)cc3F)n2)CCN1Cc1nc2ccccc2n1C[C@@H]1CCO1` [Compound 633, 2-(((2S,4S)-4-((2-((2,4-Difluorophenoxy)methyl)pyrimidin-4-yl)oxy)-2-methylpiperidin-1-yl)methyl)-1-(((S)-oxetan-2-yl)methyl)-1H-benzo[d]imidazole] is higher in EC50: 1 to 10 nM for the first, 10 to 100 nM for the second.

Compared with `C[C@H]1C[C@@H](Oc2ccnc(CNc3ncc(F)cc3Cl)n2)CCN1Cc1nc2ccc(C(=O)O)cc2n1C[C@@H]1CCO1` [Compound 624, 2-(((2S,4S)-4-((2-(((3-Chloro-5-fluoropyridin-2-yl)amino)methyl)pyrimidin-4-yl)oxy)-2-methylpiperidin-1-yl)methyl)-1-(((S)-oxetan-2-yl)methyl)-1H-benzo[d]imidazole-6-carboxylic acid], `C[C@H]1C[C@@H](Oc2ccnc(COc3ncc(F)cc3C#N)n2)CCN1Cc1nc2ccc(C(=O)O)cc2n1C[C@@H]1CCO1` [Compound 630, 2-(((2S,4S)-4-((2-(((3-Cyano-5-fluoropyridin-2-yl)oxy)methyl)pyrimidin-4-yl)oxy)-2-methylpiperidin-1-yl)methyl)-1-(((S)-oxetan-2-yl)methyl)-1H-benzo[d]imidazole-6-carboxylic acid] is lower in EC50: 1 to 10 nM for the first, 0.1 to 1 nM for the second.

First: C[C@H]1C[C@@H](Oc2ccnc(COc3ncc(C#N)cc3F)c2)CCN1Cc1nc2c(F)cc(C(=O)O)cc2n1C[C@@H]1CCO1 [Compound 625, 2-(((2S,4S)-4-((2-(((5-Cyano-3-fluoropyridin-2-yl)oxy)methyl)pyridin-4-yl)oxy)-2-methylpiperidin-1-yl)methyl)-4-fluoro-1-(((S)-oxetan-2-yl)methyl)-1H-benzo[d]imidazole-6-carboxylic acid]
Second: N#Cc1cnc(OCc2nccc(OC3CCN(Cc4nc5c(F)cc(C(=O)O)cc5n4C[C@@H]4CCO4)CC3)n2)c(F)c1 [Compound 634]
The EC50 of the first is higher: 1 to 10 nM for the first, 0.1 to 1 nM for the second. The second is the more potent here.

`C[C@H](Cn1c(CN2CC[C@H](Oc3ccnc(COc4ncc(F)cc4C#N)n3)C[C@@H]2C)nc2ccc(C(=O)O)cc21)OC(F)F` [Compound 627, 2-(((2S,4S)-4-((2-(((3-Cyano-5-fluoropyridin-2-yl)oxy)methyl)pyrimidin-4-yl)oxy)-2-methylpiperidin-1-yl)methyl)-1-((R)-2-(difluoromethoxy)propyl)-1H-benzo[d]imidazole-6-carboxylic acid] and `C[C@H]1C[C@@H](Oc2ccnc(COc3ncc(C#N)cc3F)n2)CCN1Cc1nc2ccc(C(=O)O)cc2n1CCOCC(F)(F)F` [Compound 635, 2-(((2S,4S)-4-((2-(((5-Cyano-3-fluoropyridin-2-yl)oxy)methyl)pyrimidin-4-yl)oxy)-2-methylpiperidin-1-yl)methyl)-1-(2-(2,2,2-trifluoroethoxy)ethyl)-1H-benzo[d]imidazole-6-carboxylic acid] fall in the same range of EC50: 0.1 to 1 nM for the first, 0.1 to 1 nM for the second.

`O=C(O)c1cc(F)c2nc(CN3CCC(Oc4ccnc(COc5ncc(F)cc5F)n4)CC3)n(C[C@@H]3CCO3)c2c1` [Compound 628, (S)-2-((4-((2-(((3,5-difluoropyridin-2-yl)oxy)methyl)pyrimidin-4-yl)oxy)piperidin-1-yl)methyl)-4-fluoro-1-(oxetan-2-ylmethyl)-1H-benzo[d]imidazole-6-carboxylic acid] and `C[C@H]1C[C@@H](Oc2ccnc(COc3ncc(F)cc3F)n2)CCN1Cc1nc2ccc(C(=O)O)cc2n1C[C@@H]1CCCO1` [Compound 632, 2-(((2S,4S)-4-((2-(((3,5-Difluoropyridin-2-yl)oxy)methyl)pyrimidin-4-yl)oxy)-2-methylpiperidin-1-yl)methyl)-1-(((S)-tetrahydrofuran-2-yl)methyl)-1H-benzo[d]imidazole-6-carboxylic acid] fall in the same range of EC50: 0.1 to 1 nM for the first, 0.1 to 1 nM for the second.

Compared with `C[C@H]1C[C@@H](Oc2ccnc(COc3ncc(C#N)cc3F)n2)CCN1Cc1nc2ccc(C(=O)O)cc2n1C[C@@H]1CCCO1` [Compound 631, 2-(((2S,4S)-4-((2-(((5-cyano-3-fluoropyridin-2-yl)oxy)methyl)pyrimidin-4-yl)oxy)-2-methylpiperidin-1-yl)methyl)-1-(((S)-tetrahydrofuran-2-yl)methyl)-1H-benzo[d]imidazole-6-carboxylic acid], `C[C@H]1C[C@@H](Oc2ccnc(COc3ccc(F)cc3F)n2)CCN1Cc1nc2ccc(C(=O)Nc3cccnc3)cc2n1C[C@@H]1CCO1` [Compound 638, 2-(((2S,4S)-4-((2-((2,4-Difluorophenoxy)methyl)pyrimidin-4-yl)oxy)-2-methylpiperidin-1-yl)methyl)-1-(((S)-oxetan-2-yl)methyl)-N-(pyridin-3-yl)-1H-benzo[d]imidazole-6-carboxamide] is higher in EC50: 0.1 to 1 nM for the first, 10 to 100 nM for the second. The first is the more potent here.

`C[C@H]1C[C@@H](Oc2ccnc(COc3ncc(C#N)cc3F)n2)CCN1Cc1nc2c(F)cc(C(=O)O)cc2n1CCOCC(F)(F)F` [Compound 636, 2-(((2S,4S)-4-((2-(((5-cyano-3-fluoropyridin-2-yl)oxy)methyl)pyrimidin-4-yl)oxy)-2-methylpiperidin-1-yl)methyl)-4-fluoro-1-(2-(2,2,2-trifluoroethoxy)ethyl)-1H-benzo[d]imidazole-6-carboxylic acid] gave an EC50 of 0.1 to 1 nM.
